Tests used:
[1] = system: women with endometriosis; assay: Bone mineral density (BMD) of the lumbar spine by DEXA, ratio of 6 month to baseline; format: in vivo; details: deslorelin alone, another study
Method: Women with endometriosis treated with intranasal deslorelin (a GnRH compound) were assigned to one of three methods of estradiol add-back: (1) 50 μg/day estradiol transdermal patch, (2) 300 μg/day intranasal estradiol, or (3) 300 μg/day intranasal estradiol with 275 μg/day intranasal testosterone. Loss of bone mineral density (BMD) is a known side effect of treatment with GnRH compounds. Thus, BMD of the lumbar spine (L1–L4) of the test subjects in Example 4 was obtained bydual-energy X-ray absorptiometry (DEXA) prior to and after six months of treatment. The results are shown in Table 4 as the ratio of BMD at the six month time point (BMD6mo.) to the BMD prior to treatment (BMDbaseline).
Women with endometriosis treated with intranasal deslorelin (GnRH compound) were assigned to one of three methods of add-back: (1) 50 μg/day estradiol transdermal patch, (2) 300 μg/day intranasal estradiol, or (3) 300 μg/day intranasal estradiol with 275 μg/day intranasal testosterone. Bone mineral density (BMD) of the lumbar spine was obtained by dual-energy X-ray absorptiometry (DEXA) prior to and after six months of drug treatment. BMD changes are shown in Table 4 as the ratio of the 6 month value compared to the baseline value.

[2] = cited from earlier work

| Structure (SMILES) | Ratio of 6 Month BMD to Baseline BMD, Mean [1] | water solubility (at 25° C., g/100 mL) [2] |
| --- | --- | --- |
| CCNC(=O)[C@@H]1CCCN1C(=O)[C@H](CCCN=C(N)N)NC(=O)[C@H](CC(C)C)NC(=O)[C@@H](Cc1c[nH]c2ccccc12)NC(=O)[C@H](Cc1ccc(O)cc1)NC(=O)[C@H](CO)NC(=O)[C@H](Cc1c[nH]c2ccccc12)NC(=O)[C@H](Cc1cnc[nH]1)NC(=O)[C@@H]1CCC(=O)N1 [Deslorelin (D), deslorelin] | 0.971 | – |
| OC[C@H]1O[C@@H]2O[C@H]3[C@H](O)[C@@H](O)[C@@H](O[C@H]4[C@H](O)[C@@H](O)[C@@H](O[C@H]5[C@H](O)[C@@H](O)[C@@H](O[C@H]6[C@H](O)[C@@H](O)[C@@H](O[C@H]7[C@H](O)[C@@H](O)[C@@H](O[C@H]8[C@H](O)[C@@H](O)[C@@H](O[C@H]9[C@H](O)[C@@H](O)[C@@H](O[C@H]%10[C@H](O)[C@@H](O)[C@@H](O[C@H]1[C@H](O)[C@H]2O)O[C@@H]%10CO)O[C@@H]9CO)O[C@@H]8CO)O[C@@H]7CO)O[C@@H]6CO)O[C@@H]5CO)O[C@@H]4CO)O[C@@H]3CO [δ-cyclodextrin] | – | 8.19 g/100 mL |
